Reference: patent US20100137309A1, “FUNGICIDES PHENYL-PYRIMIDNYL-AMINO DERIVATIVES” (priority 2007, published 2010)

test system: not listed separately; assay: Log p of the compounds of Table A; conditions: not given

Structure (SMILES) | Log p
CC(C)N(C)C(=O)c1cc(-c2ccnc(Nc3ccc(N4CCCC4=O)cc3)n2)ccn1 [Compound A325] | 2.04

test system: not listed separately; assay: Log p of the compounds of Table A; conditions: not given; remark: another data set of the same source

Structure (SMILES) | Log p
CCCN(CC1CC1)C(=O)c1cc(-c2ccnc(Nc3cc(Cl)ccc3F)n2)ccn1 [Compound A242] | 4.20
CCCN(CC)C(=O)c1cc(-c2ccnc(Nc3cc(Cl)ccc3F)n2)ccn1 [Compound A234] | 3.69
CCN(C)C(=O)c1cc(-c2ccnc(Nc3cc(Cl)ccc3F)n2)ccn1 [Compound A232] | 2.94
CCCCN(C)C(=O)c1cc(-c2ccnc(Nc3cccc(C(C)C)c3)n2)ccn1 [Compound A262] | 4.04
COCCN(C)C(=O)c1cc(-c2ccnc(Nc3cc(F)ccc3F)n2)ccn1 [Compound A230] | 2.52

test system: not listed separately; assay: Log p determination of the compounds of Table A; conditions: not given

Structure (SMILES) | logP
CCN(CC)C(=S)c1cc(-c2ccnc(Nc3cccc(Cl)c3)n2)ccn1 [Compound A391, 4-{2-[(3-chlorophenyl)amino]pyrimidin-4-yl}-N,N-diethylpyridine-2-carbothioamide] | 3.19

test system: not listed separately; assay: Log p of the compounds of Table A; conditions: not given; remark: another data set of the same source

Structure (SMILES) | logP
CC(=NNCCC#N)c1cc(-c2ccnc(Nc3cccc(Cl)c3)n2)ccn1 [Compound A108, 3-{2-[1-(4-{2-[(3-chlorophenyl)amino]pyrimidin-4-yl}pyridin-2-yl)ethylidene]hydrazinyl}propanenitrile] | 2.44
CON=C(C)c1cc(-c2ccnc(Nc3cccc(Cl)c3)n2)ccn1 [Compound A93, N-(3-chlorophenyl)-4-{2-[-N-methoxyethanimidoyl]pyridin-4-yl}pyrimidin-2-amine] | 4.46
CN(C)C(=O)c1cc(-c2ccnc(Nc3cccc(Cl)c3)n2)ccn1 [Compound A76, 4-{2-[(3-chlorophenyl)amino]pyrimidin-4-yl}-N,N-dimethylpyridine-2-carboxamide] | 2.5
CCN(CC)C(=O)c1cc(-c2ccnc(Nc3cccc(Cl)c3)n2)ccn1 [Compound A77, 4-{2-[(3-chlorophenyl)amino]pyrimidin-4-yl}-N,N-diethylpyridine-2-carboxamide] | 3.19
CC(=O)c1cc(-c2ccnc(Nc3cccc(Cl)c3)n2)ccn1 [Compound A110, 1-(4-{2-[(3-chlorophenyl)amino]pyrimidin-4-yl}pyridin-2-yl)ethanone] | 3.5

test system: Sphaerotheca fuliginea; assay: In vivo test on Sphaerotheca fuliginea (cucurbits powdery mildew), DMF/emulsifier preparation (Example B); conditions: 500 ppm; young cucurbit plants sprayed preventively one day before inoculation; grading 7 days after contamination
Procedure: In Vivo Test on Sphaerotheca fuliginea (Cucurbits Powdery Mildew) To produce a suitable preparation of active compound, 1 part by weight of active compound is mixed with 49 parts by weight of solvent (N,N-dimethylformamide) and 1 part by weight of emulsifier (alkylarylpolyglycolether), and the concentrate is diluted with water to the desired concentration. To test for preventive activity, young cucurbit plants are sprayed with the preparation of active compound at the stated rate of application. One day after this treatment, the plants are inoculated with an aqueous spore suspension of Sphaerotheca fuliginea. […] Grading is carried out 7 days after the contamination, in comparison with the control plants. […] A16.

Structure (SMILES) | good protection
COCCOC(=O)c1cc(-c2ccnc(Nc3cccc(OC)c3)n2)ccn1 [Compound A16] | at least 70%

test system: not listed separately; assay: Log p of the compounds of Table A; conditions: not given; remark: another data set of the same source

Structure (SMILES) | logP
O=C(NCCCN1CCCCCC1=O)c1cc(-c2ccnc(Nc3cccc(Cl)c3)n2)ccn1 [Compound A1, 4-{2-[(3-chlorophenyl)amino]pyrimidin-4-yl}-N-[3-(2-oxoazepan-1-yl)propyl]pyridine-2-carboxamide] | 2.98
CC(C)CCNC(=O)c1cc(-c2ccnc(Nc3cccc(Cl)c3)n2)ccn1 [Compound A19, 4-{2-[(3-chlorophenyl)amino]pyrimidin-4-yl}-N-(3-methylbutyl)pyridine-2-carboxamide] | 4.7

same assay, conditions: Table A

Structure (SMILES) | Log p
CCCNC(=O)c1cc(-c2ccnc(Nc3cccc(Cl)c3)n2)ccn1 [Compound A56] | 3.8
CCCCNC(=O)c1cc(-c2ccnc(Nc3cccc(Cl)c3)n2)ccn1 [Compound A58] | 4.31
CC(C)NC(=O)c1cc(-c2ccnc(Nc3cccc(Cl)c3)n2)ccn1 [Compound A57] | 3.83
O=C(NC1CCC1)c1cc(-c2ccnc(Nc3cccc(Cl)c3)n2)ccn1 [Compound A47] | 4.1
COCCCNC(=O)c1cc(-c2ccnc(Nc3cccc(Cl)c3)n2)ccn1 [Compound A39] | 3.31
CCC(C)NC(=O)c1cc(-c2ccnc(Nc3cccc(Cl)c3)n2)ccn1 (stereo not shown) [Compound A46] | 4.3
CCC(CC)NC(=O)c1cc(-c2ccnc(Nc3cccc(Cl)c3)n2)ccn1 [Compound A44] | 4.72
CNC(=O)c1cc(-c2ccnc(Nc3cccc(Cl)c3)n2)ccn1 [Compound A59] | 2.94
CCOC1CCC(NC(=O)c2cc(-c3ccnc(Nc4cccc(Cl)c4)n3)ccn2)CC1 (stereo not shown) [Compound A61] | 4.54
CCC(COC)NC(=O)c1cc(-c2ccnc(Nc3cccc(Cl)c3)n2)ccn1 (stereo not shown) [Compound A45] | 4.02
CC(CN(C)C)NC(=O)c1cc(-c2ccnc(Nc3cccc(Cl)c3)n2)ccn1 (stereo not shown) [Compound A38] | 1.81
O=C(NC1CCS(=O)(=O)C1)c1cc(-c2ccnc(Nc3cccc(Cl)c3)n2)ccn1 (stereo not shown) [Compound A60] | 2.8
O=C(NC1CCCC1)c1cc(-c2ccnc(Nc3cccc(Cl)c3)n2)ccn1 [Compound A40] | 4.48
